Where a name gives a salt, the structure may show the parent alone. Where only a bound is given, the exact number is not on record here.

By CC50 is commonly meant the concentration that lowers cell viability or growth by half. A lower CC50 goes with harm at low concentration.

The first series can be described thus: in vitro. Conditions: rat, gh3-tre-luc cells, AC50 (uM) modified / 1000.
For the compound `CC(C)OC(=O)CCCCC(=O)OC(C)C` [Diisopropyl adipate], the CC50 at 24 h was greater than 90 µM. Consider `CC(C)OC(=O)c1ccccc1C(=O)OC(C)C` [Diisopropyl phthalate], for which the CC50 at 24 h was greater than 90 µM. In turn, `CC(C)c1ccccc1C(C)C` [Diisopropylbenzene] gave a half-maximal cytotoxic concentration (CC50) at 24 h of 88.9 µM. In turn, `CC(C)N=C=NC(C)C` [Diisopropylcarbodiimide] came in with a CC50 at 24 h greater than 90 µM. The same measure, in the same setting: then `CC1(C)OC[C@@H]2O[C@@]3(C(=O)O)OC(C)(C)O[C@H]3[C@@H]2O1` [Dikegulac], with greater than 90 µM; and `COc1cc(C(=O)OCCCN2CCCN(CCCOC(=O)c3cc(OC)c(OC)c(OC)c3)CC2)cc(OC)c1OC` [Dilazep], with 7.82 µM. Same read-out and setting: for `CN(C(=O)C(Cl)Cl)c1ccc(OC(=O)c2ccco2)cc1` [Diloxanide furoate] the value was greater than 50 µM; for `COc1ccc2c(=O)c(C)c(-c3ccccc3)oc2c1CN(C)C` [Dimefline hydrochloride], greater than 50 µM; for `CC(O)CN(C)C` (centres unmarked) [Dimepranol], greater than 50 µM.

`OCC(S)CS` (centres unmarked) [Dimercaprol] came in with a CC50 at 24 h of 12.5 µM. Compound `CN(C)CCCN1c2ccccc2C(C)(C)c2ccccc21` [Dimetacrine] showed a cytotoxic concentration (CC50) at 24 h of 14.8 µM.

In turn, `CC1(C)OC(=O)NC1=O` [Dimethadione] showed a CC50 at 24 h greater than 90 µM.

Regarding `CCNc1nc(NC(C)C(C)C)nc(SC)n1` (centres unmarked) [Dimethametryn], the CC50 at 24 h is greater than 90 µM. Regarding `COCC(C)N(C(=O)CCl)c1c(C)csc1C` (centres unmarked) [Dimethenamid], the 50% cytotoxic concentration (CC50) at 24 h was greater than 90 µM. Same read-out and setting: for `CC1=C(C)S(=O)(=O)CCS1(=O)=O` [Dimethipin] the value was greater than 90 µM; for `CCCCc1cc2ccccc2c(OCCN(C)C)n1` [Dimethisoquin hydrochloride], 7.4 µM; for `COc1ccc(C(=CC(=O)N2CCOCC2)c2ccc(Cl)cc2)cc1OC` [Dimethomorph], greater than 90 µM. For `CC(=O)OC1CC(C)OC(C)O1` (centres unmarked) [Dimethoxane], the cytotoxic concentration (CC50) at 24 h was greater than 90 µM. `CO[Si](C)(OC)c1ccccc1` [Dimethoxy(methyl)phenylsilane] had a CC50 at 24 h greater than 90 µM. As for `COC(=O)c1ccc2cc(C(=O)OC)ccc2c1` [Dimethyl 2,6-naphthalenedicarboxylate], the half-maximal cytotoxic concentration (CC50) at 24 h is greater than 20 µM. `COC(=O)CCSCCC(=O)OC` [Dimethyl 3,3'-thiodipropionate]: the cytotoxic concentration (CC50) at 24 h was greater than 90 µM.

`COC(=O)CC(C(C)=O)C(=O)OC` (centres unmarked) [Dimethyl acetylsuccinate] yielded a CC50 at 24 h greater than 90 µM. With `COC(=O)CCCCC(=O)OC` [Dimethyl adipate], the CC50 at 24 h is greater than 90 µM. On to `COC(=O)OC` [Dimethyl carbonate], for which the CC50 at 24 h was greater than 90 µM. `COC(=O)C(Cl)C(=O)OC` [Dimethyl chloromalonate] returned a half-maximal cytotoxic concentration (CC50) at 24 h greater than 50 µM. Same read-out and setting: then `COC(=O)CCCCCCCCC(=O)OC` [Dimethyl decanedioate], with greater than 90 µM; and `COC(=O)CCCC(=O)OC` [Dimethyl glutarate], with greater than 90 µM; and `COC(=O)C1CCC(C(=O)OC)CC1` (centres unmarked) [Dimethyl hexahydroterephthalate], with greater than 90 µM. The compound `COC(=O)c1cccc(C(=O)OC)c1` [Dimethyl isophthalate] showed a 50% cytotoxic concentration (CC50) at 24 h greater than 90 µM. `COC(=O)/C=C\C(=O)OC` [Dimethyl maleate] had a 50% cytotoxic concentration (CC50) at 24 h greater than 90 µM. In the case of `COC(=O)CC(=O)OC` [Dimethyl malonate], the half-maximal cytotoxic concentration (CC50) at 24 h is greater than 100 µM. For the compound `COC(=O)CCCCCCCC(=O)OC` [Dimethyl nonanedioate], the cytotoxic concentration (CC50) at 24 h is greater than 90 µM. The compound `COC(=O)c1ccccc1C(=O)OC` [Dimethyl phthalate] had a CC50 at 24 h greater than 50 µM. The compound `COC(=O)CCC(=O)OC` [Dimethyl succinate] came in with a cytotoxic concentration (CC50) at 24 h greater than 90 µM. For the compound `COC(=O)C1CC(=O)C(C(=O)OC)CC1=O` (centres unmarked) [Dimethyl succinylsuccinate], the CC50 at 24 h was greater than 5 µM.

Compound `COS(=O)(=O)OC` [Dimethyl sulfate] gave a half-maximal cytotoxic concentration (CC50) at 24 h greater than 90 µM. `COC(=O)c1ccc(C(=O)OC)cc1` [Dimethyl terephthalate] gave a half-maximal cytotoxic concentration (CC50) at 24 h greater than 90 µM. `COC(=O)[C@H]1CC[C@H](C(=O)OC)CC1` [Dimethyl trans-cyclohexane-1,4-dicarboxylate] yielded a half-maximal cytotoxic concentration (CC50) at 24 h greater than 90 µM. On the same count and under the same terms, then `C[N+](C)(CCOc1ccccc1)Cc1cccs1` [Dimethyl(2-phenoxyethyl)-2-thenylammonium iodide], with greater than 50 µM.

The compound `CN(C)CCO` [Dimethylaminoethanol] came in with a cytotoxic concentration (CC50) at 24 h greater than 90 µM. The same measure, in the same setting: for `CN(C)CCCCl` [Dimethylaminopropyl chloride hydrochloride] the value was greater than 100 µM; for `CC(=O)OC(C)(C)Cc1ccccc1` [Dimethylbenzylcarbinyl acetate], greater than 90 µM; for `CCCCCCCCCCCCCCCCN(C)C` [Dimethylcetylamine], greater than 5 µM.

`CN(C)CCCNCCCN` [Dimethyldipropylenetriamine]: the CC50 at 24 h was greater than 90 µM. Compound `CC(=NO)C(C)=NO` [Dimethylglyoxime] yielded a CC50 at 24 h greater than 90 µM. In the case of `CC(C)N(C)C` [Dimethylisopropylamine], the CC50 at 24 h is greater than 90 µM. `O=C(NCO)NCO` [Dimethylolurea] returned a CC50 at 24 h greater than 100 µM. Turning to `O=[N+]([O-])c1cc(C2CCCCC2)c(O)c([N+](=O)[O-])c1` [Dinex], the midpoint of cytotoxicity, the CC50 at 24 h, lay at 8.98 µM. `CC(C)(C)C(O)/C(=C\c1ccc(Cl)cc1Cl)n1cncn1` (centres unmarked) [Diniconazole] displayed a CC50 at 24 h of 73.4 µM. Compared with the last compound, the CC50 at 24 h is about 8.2-fold higher. For the compound `CCN(CC)c1c([N+](=O)[O-])cc(C(F)(F)F)c(N)c1[N+](=O)[O-]` [Dinitramine], it took 85.3 µM to reach half-maximal cytotoxicity (CC50 at 24 h). Take `O=NN1CCN(N=O)CC1` [Dinitrosopiperazine]: the 50% cytotoxic concentration (CC50) at 24 h is greater than 90 µM. The compound `CCC(C)c1cc([N+](=O)[O-])cc([N+](=O)[O-])c1OC(=O)OC(C)C` (centres unmarked) [Dinobuton] showed a 50% cytotoxic concentration (CC50) at 24 h of 42.5 µM. `C/C=C/C(=O)Oc1ccccc1[N+](=O)[O-]` [Dinocap]: the CC50 at 24 h came to 14.3 µM. Take `CCCCCCCCCOC(=O)c1ccccc1C(=O)OCCCCCCCCC` [Dinonyl phthalate]: the 50% cytotoxic concentration (CC50) at 24 h was greater than 90 µM. With `CCCCC[C@H](O)/C=C/[C@H]1[C@H](O)CC(=O)[C@@H]1C/C=C\CCCC(=O)O` [Dinoprostone], the cytotoxic concentration (CC50) at 24 h was greater than 50 µM. `CN/C(=N/CC1CCOC1)N[N+](=O)[O-]` (centres unmarked) [Dinotefuran] had a CC50 at 24 h greater than 90 µM.

`O=[N+]([O-])c1cccc(S(=O)(=O)NCCNS(=O)(=O)c2cccc([N+](=O)[O-])c2)c1` [Dinsed] returned a 50% cytotoxic concentration (CC50) at 24 h greater than 50 µM.

Turning to `CCC1OCC(COc2ccc(Oc3ccccc3)cc2)O1` (centres unmarked) [Diofenolan], the CC50 at 24 h was greater than 90 µM. Still for that read-out and setting: then `COc1ccc(-c2cc(=O)c3c(O)cc(O[C@@H]4O[C@H](CO[C@@H]5O[C@@H](C)[C@H](O)[C@@H](O)[C@H]5O)[C@@H](O)[C@H](O)[C@H]4O)cc3o2)cc1O` [Diosmin], with greater than 50 µM; and `C=CC(=O)OCC(CO)(COCC(COC(=O)C=C)(COC(=O)C=C)COC(=O)C=C)COC(=O)C=C` [Dipentaerythritol pentaacrylate], with 1.74 µM.

As for `OCC(CO)(CO)COCC(CO)(CO)CO` [Dipentaerythritol], the CC50 at 24 h was greater than 90 µM. Take `CC1CCC(C(C)CS)CC1S` (centres unmarked) [Dipentenedimercaptan]: the CC50 at 24 h is greater than 90 µM. `CCCCCOC(=O)c1ccccc1C(=O)OCCCCC` [Dipentyl phthalate] showed a 50% cytotoxic concentration (CC50) at 24 h greater than 90 µM. In the case of `CCCCCNCCCCC` [Dipentylamine], the 50% cytotoxic concentration (CC50) at 24 h is greater than 90 µM.

`O=C(Nc1ccccc1)OCC(CN1CCCCC1)OC(=O)Nc1ccccc1` (centres unmarked) [Diperodon hydrochloride] displayed a 50% cytotoxic concentration (CC50) at 24 h of 10.5 µM.

The same series, now with this note: rat, gh3-tre-luc cells, AC50 (uM) modified / 1000, Tox21_110001=Tox21_111075; viability, 1 nM T3 present, 24 h.
`CC(C)NC(C)C` [Diisopropylamine]: the 50% cytotoxic concentration (CC50) at 24 h was greater than 50 µM.

Staying with this series, now noted: rat, gh3-tre-luc cells, AC50 (uM) modified / 1000, Tox21_110001=Tox21_111807; viability, 1 nM T3 present, 24 h.
For the compound `C[C@@H](Cc1ccccc1)N(C)C` [Dimetamfetamine], the 50% cytotoxic concentration (CC50) at 24 h was greater than 50 µM.

The series is the same for the next values; noted with them: rat, gh3-tre-luc cells, AC50 (uM) modified / 1000, Tox21_110001=Tox21_113138; viability, 1 nM T3 present, 24 h.
As to `Cc1ccc2c(c1)[C@]13CCCC[C@@H]1[C@H](C2)N(C)CC3` [Dimemorfan phosphate], the CC50 at 24 h is greater than 50 µM.

Still in this series, the particulars now being: rat, gh3-tre-luc cells, AC50 (uM) modified / 1000, Tox21_110001=Tox21_200216; viability, 1 nM T3 present, 24 h.
For the compound `CC(C)NC(C)C` [Diisopropylamine], the CC50 at 24 h was greater than 90 µM.

Still in this series, the particulars now being: rat, gh3-tre-luc cells, AC50 (uM) modified / 1000, Tox21_110001=Tox21_200580; viability, 1 nM T3 present, 24 h.
Compound `CNC` [Dimethylammonium nitrate] had a CC50 at 24 h greater than 90 µM.

Staying with this series, now noted: rat, gh3-tre-luc cells, AC50 (uM) modified / 1000, Tox21_110001=Tox21_201334; viability, 1 nM T3 present, 24 h.
With `CN(C)C(=O)Cl` [Dimethylcarbamoyl chloride], the cytotoxic concentration (CC50) at 24 h was greater than 90 µM.

The series is the same for the next values; noted with them: rat, gh3-tre-luc cells, AC50 (uM) modified / 1000, Tox21_110001=Tox21_201878; viability, 1 nM T3 present, 24 h.
`CCC(C)c1cc([N+](=O)[O-])cc([N+](=O)[O-])c1O` (centres unmarked) [Dinoseb]: the half-maximal cytotoxic concentration (CC50) at 24 h was greater than 90 µM.

The series is the same for the next values; noted with them: rat, gh3-tre-luc cells, AC50 (uM) modified / 1000, Tox21_110001=Tox21_202246; viability, 1 nM T3 present, 24 h.
For `CNC(=O)CSP(=S)(OC)OC` [Dimethoate], the CC50 at 24 h was greater than 90 µM.

Staying with this series, now noted: rat, gh3-tre-luc cells, AC50 (uM) modified / 1000, Tox21_110001=Tox21_300421; viability, 1 nM T3 present, 24 h.
Compound `CCC(C)c1cc([N+](=O)[O-])cc([N+](=O)[O-])c1O` (centres unmarked) [Dinoseb] had a cytotoxic concentration (CC50) at 24 h of 20.4 µM.

The same series, now with this note: rat, gh3-tre-luc cells, AC50 (uM) modified / 1000, Tox21_110001=Tox21_300743; viability, 1 nM T3 present, 24 h.
Consider `CC(C)(C)c1cc([N+](=O)[O-])cc([N+](=O)[O-])c1O` [Dinoterb], for which the CC50 at 24 h came to 8.14 µM.

The same series, now with this note: rat, gh3-tre-luc cells, AC50 (uM) modified / 1000, Tox21_110001=Tox21_301855; viability, 1 nM T3 present, 24 h.
Regarding `Cc1cc(OC(=O)N(C)C)nn1C(=O)N(C)C` [Dimetilan], the half-maximal cytotoxic concentration (CC50) at 24 h was greater than 90 µM.

Staying with this series, now noted: rat, gh3-tre-luc cells, AC50 (uM) modified / 1000, Tox21_110001=Tox21_302420; viability, 1 nM T3 present, 24 h.
As to `CNC(=O)Oc1ccccc1C1OCCO1` [Dioxacarb], the CC50 at 24 h was greater than 90 µM.

The values above are taken from paper PMC6792352, “Limited Chemical Structural Diversity Found to Modulate Thyroid Hormone Receptor in the Tox21 Chemical Library” (Environmental Health Perspectives, 2019).
